According to article PMC5681660, “Reduced hepatitis B and D viral entry using clinically applied drugs as novel inhibitors of the bile acid transporter NTCP” (Scientific Reports, 2017):
Where a name gives a salt, the structure may show the parent alone. Read-outs that look alike come from different tables or passages of the source.

Target: T1, human NTCP (Homo sapiens, UniProt Q14973)
T1 sequence (Q14973 1-349): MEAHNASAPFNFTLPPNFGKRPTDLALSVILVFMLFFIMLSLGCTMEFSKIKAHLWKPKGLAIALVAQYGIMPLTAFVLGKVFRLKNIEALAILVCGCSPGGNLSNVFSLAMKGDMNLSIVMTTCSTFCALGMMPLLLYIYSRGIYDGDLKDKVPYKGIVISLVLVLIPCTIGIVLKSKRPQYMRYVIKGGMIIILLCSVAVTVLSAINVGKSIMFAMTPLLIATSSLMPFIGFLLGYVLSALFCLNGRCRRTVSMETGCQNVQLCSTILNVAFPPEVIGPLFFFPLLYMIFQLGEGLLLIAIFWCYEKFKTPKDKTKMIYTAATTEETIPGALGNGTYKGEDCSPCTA
Experiment: Screening taurocholate uptake assay (96-well, [14C]taurocholate, 10 µM drug)

[1] = combined ranking of functional and binding screening assays
[2] = screening taurocholate uptake, 10 µM drug
[3] = ranking over the functional and the binding screening assay
[4] = screening taurocholate uptake, 10 µM drug, B-score

Compound | Ranking score [1] | B-score functional assay [2] | Ranking score [3] | B-score functional assay [4] | B-score functional assay
CN1C(C(=O)Nc2ccccn2)=C(O)c2sccc2S1(=O)=O [Tenoxicam] | 641.502 | 0.141 |  |  | 
COCC1=C(C(=O)OC(C)OC(=O)OC(C)C)N2C(=O)[C@@H](NC(=O)/C(=N\OC)c3csc(N)n3)[C@H]2SC1 (stereo partly drawn) [Cefpodoxime proxetil] | 640.176 | -0.201 |  |  | 
O=C(N[C@H](CO)[C@H](O)c1ccc([N+](=O)[O-])cc1)C(Cl)Cl [Chloramphenicol] | 594.757 | 2.451 |  |  | 
CN1CCCN=C1/C=C/c1cccs1.O=C(O)C(O)C(O)C(=O)O [Pyrantel tartrate] | 600.829 | -0.111 |  |  | 
COc1ccc(C(=O)NCc2ccc(OCCN(C)C)cc2)cc1OC [Itopride] | 560.029 | -0.688 |  |  | 
CC1(C)[C@@H](OC(=O)CCC(=O)O)CC[C@]2(C)[C@H]3C(=O)C=C4[C@@H]5C[C@@](C)(C(=O)O)CC[C@]5(C)CC[C@@]4(C)[C@]3(C)CC[C@@H]12 [Carbenoxolone disodium salt] |  | -5.734 | 79.4984 |  | 
COc1cnc(NS(=O)(=O)c2ccc(N)cc2)nc1 [Sulfameter] | 466.613 | -1.201 |  |  | 
CC(C)(C)NCC(O)c1ccccc1Cl (stereo not drawn) [Tulobuterol] | 1214.72 |  |  | 2.873 | 
CCOC(=O)OC(C)OC(=O)[C@@H]1N2C(=O)[C@@H](NC(=O)[C@H](N)c3ccccc3)[C@H]2SC1(C)C (stereo partly drawn) [Bacampicillin hydrochloride] | 500.635 | -0.626 |  |  | 
Cc1ncc([N+](=O)[O-])n1CC(O)CCl (stereo not drawn) [Ornidazole] |  | -1.861 | 260.803 |  | 
CC(C(=O)O)c1ccc(-c2ccccc2)c(F)c1 (stereo not drawn) [Flurbiprofen] | 612.059 | -0.613 |  |  | 
O=C(NCCO[N+](=O)[O-])c1cccnc1 [Nicorandil] | 1149.4 |  |  | 0.976 | 
CCN(CC)C(=S)SSC(=S)N(CC)CC [Disulfiram] |  | -4.037 | 82.3772 |  | 
CCC(=O)OCC(=O)[C@@]1(OC(=O)CC)[C@H](C)C[C@H]2[C@H]3[C@H]([C@@H](O)C[C@@]21C)[C@@]1(C)C=CC(=O)C=C1C[C@H]3Cl [Alclometasone dipropionate] |  | -2.188 | 175.417 |  | 
CN1CCC(OC(c2ccccc2)c2ccccc2)CC1 [Diphenylpyraline hydrochloride] |  | -0.425 | 142.127 |  | 
CC(=O)O[C@H]1C[C@@]2(C)[C@@H](C[C@@H](O)[C@H]3[C@@]4(C)CC[C@@H](O)[C@@H](C)[C@@H]4CC[C@@]32C)/C1=C(\CCC=C(C)C)C(=O)O [Fusidic acid sodium salt] | 523.068 | -0.548 |  |  | 
Cc1[nH]cnc1CN1CCc2c(c3ccccc3n2C)C1=O [Alosetron hydrochloride] | 562.783 | -0.019 |  |  | 
CC(C)(C)NC[C@@H](O)COc1cccc2c1CCCC2=O.Cl [(+) -Levobunolol hydrochloride] | 464.377 | -1.002 |  |  | 
CO[C@H]1/C=C/O[C@@]2(C)Oc3c(C)c(O)c4c(O)c(c(/C=N/N5CCN(C6CCCC6)CC5)c(O)c4c3C2=O)NC(=O)/C(C)=C\C=C\[C@H](C)[C@H](O)[C@@H](C)[C@@H](O)[C@@H](C)[C@H](OC(C)=O)[C@@H]1C [Rifapentine] |  | 0.477 | 220.209 |  | 
CN1CCN(C(c2ccccc2)c2ccc(Cl)cc2)CC1 (stereo not drawn) [Chlorcyclizine hydrochloride] | 1232.56 |  |  | 4.014 | 
OC(CCN1CCCC1)(c1ccccc1)C1CCCCC1 (stereo not drawn) [Procyclidine hydrochloride] | 562.821 | -0.705 |  |  | 
CCc1oc2ccccc2c1C(=O)c1cc(Br)c(O)c(Br)c1 [Benzbromarone] |  | -5.011 | 148.825 |  | 
CN1[C@@H]2CC(OC(=O)[C@H](CO)c3ccccc3)C[C@H]1[C@@H]1O[C@@H]12.Cl (stereo partly drawn) [Scopolamine hydrochloride] | 577.314 | 0.343 |  |  | 
CC(=O)CCCCn1c(=O)c2c(ncn2C)n(C)c1=O [Pentoxifylline] | 582.174 | -0.027 |  |  | 
COc1cc(C)nc(-n2nc(C)cc2OC)n1 [Epirizole] |  | 0.634 | 209.705 |  | 

Compound | Ranking score [1] | B-score functional assay [2] | Ranking score [3] | B-score functional assay [4] | B-score functional assay
Cc1ccnc2c1NC(=O)c1cccnc1N2C1CC1 [Nevirapine] | 548.284 | -1.052 |  |  | 
CCCCC(CC)CN1CN(CC(CC)CCCC)CC(C)(N)C1 (stereo not drawn) [Hexetidine] | 491.543 | 3.961 |  |  | 
Cc1cccc(C)c1NC(=O)CN1CCN(CCCC(c2ccc(F)cc2)c2ccc(F)cc2)CC1 [Lidoflazine] | 479.588 | -0.817 |  |  | 
CCC(NC(C)C)C(O)c1ccc(O)c(O)c1.CS(=O)(=O)O (stereo not drawn) [Isoetharine mesylate salt] | 639.265 | -0.384 |  |  | 
CC[C@H](C)[C@H]1O[C@]2(C=C[C@@H]1C)C[C@@H]1C[C@@H](C/C=C(\C)[C@@H](O[C@H]3C[C@H](OC)[C@@H](O[C@H]4C[C@H](OC)[C@@H](O)[C@H](C)O4)[C@H](C)O3)[C@@H](C)/C=C/C=C3\CO[C@@H]4[C@H](O)C(C)=C[C@@H](C(=O)O1)[C@]34O)O2 [Avermectin B1a] |  | -1.314 | 51.7494 |  | 
CC1=C(/C=C/C(C)=C/C=C/C(C)=C\C(=O)O)C(C)(C)CCC1 [Isotretinoin] |  | -0.503 | 204.751 |  | 
Cl.OC1CCCCC1N1CCC(c2ccccc2)CC1 (stereo not drawn) [L(-)-vesamicol hydrochloride] |  | -0.315 | 206.223 |  | 
COc1cc2c(c(OC)c1OC)-c1ccc(OC)c(=O)cc1[C@@H](NC(C)=O)CC2 [Colchicine] |  |  |  |  | -0.631
CCOc1cc(CC(=O)N[C@@H](CC(C)C)c2ccccc2N2CCCCC2)ccc1C(=O)O [Repaglinide] |  | -2.984 | 233.103 |  | 
C[C@@H]1CN(c2c(F)c(N)c3c(=O)c(C(=O)O)cn(C4CC4)c3c2F)C[C@H](C)N1 [Sparfloxacin] |  | -2.411 | 231.849 |  | 
CCOC(=O)O[C@]1(C(=O)COC(=O)CC)CC[C@H]2[C@@H]3CCC4=CC(=O)C=C[C@]4(C)[C@H]3[C@@H](O)C[C@@]21C [Prednicarbate] |  | -1.448 | 140.036 |  | 
O=[N+]([O-])O[C@@H]1CO[C@H]2[C@@H]1OC[C@@H]2O [Isosorbide mononitrate] |  | -0.263 | 252.589 |  | 
NCc1ccccc1CC(=O)N[C@@H]1C(=O)N2C(C(=O)O)=C(CSc3nnnn3CC(=O)O)CS[C@H]12 [Ceforanide] | 1237.77 |  |  | 3.778 | 
COc1ccc([C@@H]2CC(=O)c3c(O)cc(O[C@@H]4O[C@H](CO[C@@H]5O[C@@H](C)[C@H](O)[C@@H](O)[C@H]5O)[C@@H](O)[C@H](O)[C@H]4O)cc3O2)cc1O [Hesperidin] | 580.078 | 0.91 |  |  | 
COC(=O)C1=C(C)NC(C)=C(C(=O)OC(C)C)C1c1cccc2nonc12 (stereo not drawn) [Isradipine] |  | -0.707 | 185.591 |  | 
Nc1ccc(S(=O)(=O)c2ccc(N)cc2)cc1 [Dapsone] |  | 0.012 | 186.888 |  | 
O=C([O-])c1ccccc1-c1c2cc(Br)c(=O)cc-2oc2[c]([Hg+])c([O-])c(Br)cc12.[Na+].[Na+].[OH-] [Merbromin] |  | -0.374 | 82.365 |  | 
COc1ccc2c(c1)c(CC(=O)O)c(C)n2C(=O)c1ccc(Cl)cc1 [Indomethacin] |  | -1.11 | 264.174 |  | 
COc1ccc(-c2cc(=O)c3c(O)cc(O[C@@H]4O[C@H](CO[C@@H]5O[C@@H](C)[C@H](O)[C@@H](O)[C@H]5O)[C@@H](O)[C@H](O)[C@H]4O)cc3o2)cc1O [Diosmin] |  | -1.635 | 207.123 |  | 
CC(C)Oc1ccc2c(=O)c(-c3ccccc3)coc2c1 [Ipriflavone] | 535.848 | 2.878 |  |  | 
C[C@H](N)[C@H](O)c1cccc(O)c1 [Metaraminol bitartrate] |  | 0.952 | 141.58 |  | 
N[C@@H](Cc1ccc(O)c(O)c1)C(=O)O [Levodopa] |  | 0.049 | 265.141 |  | 
CC(=O)[N-]S(=O)(=O)c1ccc(N)cc1.O.[Na+] [Sulfacetamide sodic hydrate] |  | -0.444 | 277.153 |  | 
COC(=O)[C@@H]1[C@H]2C[C@H]3c4[nH]c5ccccc5c4CCN3C[C@@H]2CC[C@@H]1O [Yohimbine hydrochloride] |  | -1.965 | 229.785 |  | 
CN(C)[C@@H]1C(O)=C(C(=O)NCNCCCC[C@H](N)C(=O)O)C(=O)[C@@]2(O)C(O)=C3C(=O)c4c(O)cccc4[C@@](C)(O)[C@H]3C[C@@H]12 [Lymecycline] | 591.633 | 0.716 |  |  | 
